# From patent US20220401390A1, “TREATMENTS OF DIABETIC MACULAR EDEMA AND IMPAIRED VISUAL ACUITY” (KALVISTA PHARMACEUTICALS LIMITED, priority 2019, published 2022)
# “Also recorded” adds a separate entry of the source.
# Tested on: subjects with center involved diabetic macular edema
# Assay: Study 1: pharmacodynamic effect (visual acuity, retinal thickness)
# Assay type: in vivo, human
# Details: for Mean improvement in visual acuity compared with baseline: single injection
# Experimental: The secondary objectives were: • To evaluate the plasma profile of the compound of Formula A following intravitreal injection in adult male and female subjects with central involved diabetic macular edema. • To evaluate the pharmacodynamic effect of intravitreal injection of the compound of Formula A in adult male and female subjects with central involved diabetic macular edema.
# Following the signing of informed consent, subjects attended the clinic where screening assessments were recorded (Clinic Visit 1). When deemed eligible, subjects attended the clinic where baseline measurements were recorded (recorded as Day 0, Clinic Visit 2). Following confirmation of eligibility and the taking of baseline ophthalmic measurements, a single intravitreal injection of the compound of Formula A, was administered to the study eye as per Diabetic Retinopathy Clinical Research Network (DRCR.net) protocol.
# Each subject returned on Day 1, 7, 14, 28 and 56 for safety and ophthalmic assessment. Pharmacokinetic assessment was also taken. In addition, the subject was contacted by the Study Site on Day 3 (+1-1 day) by telephone to inquire about the subject's visual wellbeing and to ask about any adverse events.
# Single 100 μL intravitreal injection of: • 1 μg-10 μg/mL of the compound of Formula A • 3 μg-30 μg/mL of the compound of Formula A • […] of the compound of Formula A
# • Best Corrected Visual Acuity as measured by ETDRS EVA • Intraocular pressure • Color vision • Multifocal Electroretinogram (mfERG) • Humphrey Visual Field 24-2 (HVF 24-2) • Treatment-Emergent Adverse Events (TEAEs) • Changes on ophthalmic examination • Clinical laboratory test results • Vital signs • ECG findings
# [1] = whole study population, no control group
smiles,measurement,setting,value
"CCOc1ccc(C[C@@H](NC(=O)c2ccccc2)C(=O)N[C@@H](Cc2ccccc2)C(=O)NCc2ccc(CN)cc2)cc1 [compound of Formula A, N—[(R)-1-[(S)-1-(4-Aminomethyl-benzylcarbamoyl)-2-phenyl-ethylcarbamoyl]-2-(4-ethoxy-phenyl)-ethyl]-benzamide]",Mean improvement in visual acuity compared with baseline,"Day 7, average across all dose groups",0.7 letters
same,Mean improvement in visual acuity compared with baseline,"Day 14, average across all dose groups",1.0 letters
same,Mean improvement in visual acuity compared with baseline,"Day 28, average across all dose groups",1.9 letters
same,Mean improvement in visual acuity compared with baseline,"Day 56, average across all dose groups",2.8 letters
same,Mean improvement in visual acuity,"Day 84, 1 μg dose",3.3 letters
same,Mean improvement in visual acuity,"Day 84, 3 μg dose",2.0 letters
same,Mean improvement in visual acuity compared with baseline,"Day 84, average across all dose groups",4.1 letters
same,Mean retinal thickness post-injection (in words),[1],trends of improvement; also recorded: reduction
same,Mean visual acuity post-injection (in words),[1],trends of improvement; also recorded: small improvement
